From patent US8785457B2 (Cellzome Limited, priority 2009, dated 2014)
Like-named read-outs stand apart in the source and are kept apart here.

Key:
Assay type in all cases: binding
[1] = target: T1, DNA-dependent protein kinase (DNA-PK) (Homo sapiens, UniProt P78527); assay: kinobeads assay, DNA-PK; details: kinobeads assay
T1 construct: endogenous in cells; host or cells: Jurkat, clone E6-1 (ATCC TIB-152) cell lysate
Method in brief: (§1)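 IC50 values came from dose-response curves after test compound (1:3 series) competed with an immobilized phenylmorpholin-chromen affinity matrix for kinases in Jurkat lysate at 5 mg/mL protein. Eluted captured DNA-PK and PI3Kδ were measured by specific-antibody dot blot and infrared imaging. Buffer was Tris pH 7.4, NP40, MgCl2, NaCl, vanadate, DTT, NaF.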

PI3Kalpha (PI3Ka) = target: T2, PI3Kalpha (PI3Ka) (Homo sapiens, UniProt P42336); assay: kinobeads assay, PI3Kalpha; details: kinobeads assay, Table 6; for IC50: read-out: Inhibition values (IC50) PI3Ka
T2 construct: endogenous in cells; host or cells: cell lysate
Method in brief: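 Competitive pull-down in cell lysate: compound (various conc.) + phenylmorpholin-chromen affinity beads, incubate, separate beads, elute. Multiplexed immunodetection of bound kinases; dose-response fit → IC50.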

PI3K delta (PI3 Kd) = target: T3, PI3K delta (PI3 Kd) (Homo sapiens, UniProt O00329); assay: kinobeads assay, PI3K delta; details: kinobeads assay, read-out: Inhibition values (IC50) PI3Kd
T3 construct: endogenous in cells; host or cells: Jurkat, clone E6-1 (ATCC TIB-152) cell lysate
Method in brief: as §1

[2] = Table 6, read-out: Inhibition values (IC50) DNAPK
[3] = Table 4, read-out: Inhibition values (IC50) DNA-PK

T2 sequence (P42336 whole entry): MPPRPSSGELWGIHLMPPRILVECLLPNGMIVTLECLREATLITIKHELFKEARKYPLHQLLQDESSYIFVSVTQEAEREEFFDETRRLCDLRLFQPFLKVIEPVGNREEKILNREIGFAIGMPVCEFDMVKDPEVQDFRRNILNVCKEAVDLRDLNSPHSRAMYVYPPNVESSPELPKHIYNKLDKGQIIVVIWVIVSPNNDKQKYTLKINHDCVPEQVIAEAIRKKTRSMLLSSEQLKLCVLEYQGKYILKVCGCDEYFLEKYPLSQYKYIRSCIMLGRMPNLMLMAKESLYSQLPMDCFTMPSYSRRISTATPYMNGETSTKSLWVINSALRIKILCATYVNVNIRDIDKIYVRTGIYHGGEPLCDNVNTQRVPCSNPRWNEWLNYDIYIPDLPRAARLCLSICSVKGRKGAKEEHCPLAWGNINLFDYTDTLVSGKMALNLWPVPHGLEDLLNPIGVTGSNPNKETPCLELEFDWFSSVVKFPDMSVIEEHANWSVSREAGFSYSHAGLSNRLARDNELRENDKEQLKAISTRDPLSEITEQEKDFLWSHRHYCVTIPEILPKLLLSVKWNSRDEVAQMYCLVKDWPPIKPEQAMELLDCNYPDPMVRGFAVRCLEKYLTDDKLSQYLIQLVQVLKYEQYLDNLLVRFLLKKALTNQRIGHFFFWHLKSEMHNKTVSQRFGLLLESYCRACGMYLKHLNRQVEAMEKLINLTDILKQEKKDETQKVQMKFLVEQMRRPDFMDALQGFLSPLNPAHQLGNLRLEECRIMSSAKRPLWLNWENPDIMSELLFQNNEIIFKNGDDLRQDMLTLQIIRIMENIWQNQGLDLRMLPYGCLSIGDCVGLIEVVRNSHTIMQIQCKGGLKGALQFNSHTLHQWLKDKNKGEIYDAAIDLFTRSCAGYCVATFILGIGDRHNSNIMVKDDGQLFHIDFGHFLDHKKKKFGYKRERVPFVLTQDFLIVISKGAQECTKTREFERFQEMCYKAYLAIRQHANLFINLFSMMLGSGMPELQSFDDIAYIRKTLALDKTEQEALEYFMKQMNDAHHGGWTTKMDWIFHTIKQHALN
T2 sequence (P27986 whole entry partner): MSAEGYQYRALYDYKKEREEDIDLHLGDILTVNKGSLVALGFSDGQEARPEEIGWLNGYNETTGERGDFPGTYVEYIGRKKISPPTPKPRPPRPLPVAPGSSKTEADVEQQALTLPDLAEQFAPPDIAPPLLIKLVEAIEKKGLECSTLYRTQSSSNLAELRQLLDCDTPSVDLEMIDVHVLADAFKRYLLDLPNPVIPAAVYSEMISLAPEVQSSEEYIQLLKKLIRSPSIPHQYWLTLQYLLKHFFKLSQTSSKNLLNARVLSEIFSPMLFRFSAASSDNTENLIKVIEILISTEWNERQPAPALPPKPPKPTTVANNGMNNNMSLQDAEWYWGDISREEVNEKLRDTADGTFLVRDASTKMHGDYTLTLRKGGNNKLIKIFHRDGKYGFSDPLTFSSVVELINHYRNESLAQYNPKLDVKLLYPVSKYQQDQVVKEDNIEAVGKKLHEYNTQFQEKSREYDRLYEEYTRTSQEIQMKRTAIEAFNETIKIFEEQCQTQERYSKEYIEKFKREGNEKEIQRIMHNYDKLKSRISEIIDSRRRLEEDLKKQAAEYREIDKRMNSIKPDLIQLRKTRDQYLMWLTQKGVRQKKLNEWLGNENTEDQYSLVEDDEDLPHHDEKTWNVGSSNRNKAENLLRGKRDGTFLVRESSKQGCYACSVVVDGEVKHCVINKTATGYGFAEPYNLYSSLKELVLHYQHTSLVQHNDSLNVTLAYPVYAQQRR
T3 sequence (O00329 whole entry): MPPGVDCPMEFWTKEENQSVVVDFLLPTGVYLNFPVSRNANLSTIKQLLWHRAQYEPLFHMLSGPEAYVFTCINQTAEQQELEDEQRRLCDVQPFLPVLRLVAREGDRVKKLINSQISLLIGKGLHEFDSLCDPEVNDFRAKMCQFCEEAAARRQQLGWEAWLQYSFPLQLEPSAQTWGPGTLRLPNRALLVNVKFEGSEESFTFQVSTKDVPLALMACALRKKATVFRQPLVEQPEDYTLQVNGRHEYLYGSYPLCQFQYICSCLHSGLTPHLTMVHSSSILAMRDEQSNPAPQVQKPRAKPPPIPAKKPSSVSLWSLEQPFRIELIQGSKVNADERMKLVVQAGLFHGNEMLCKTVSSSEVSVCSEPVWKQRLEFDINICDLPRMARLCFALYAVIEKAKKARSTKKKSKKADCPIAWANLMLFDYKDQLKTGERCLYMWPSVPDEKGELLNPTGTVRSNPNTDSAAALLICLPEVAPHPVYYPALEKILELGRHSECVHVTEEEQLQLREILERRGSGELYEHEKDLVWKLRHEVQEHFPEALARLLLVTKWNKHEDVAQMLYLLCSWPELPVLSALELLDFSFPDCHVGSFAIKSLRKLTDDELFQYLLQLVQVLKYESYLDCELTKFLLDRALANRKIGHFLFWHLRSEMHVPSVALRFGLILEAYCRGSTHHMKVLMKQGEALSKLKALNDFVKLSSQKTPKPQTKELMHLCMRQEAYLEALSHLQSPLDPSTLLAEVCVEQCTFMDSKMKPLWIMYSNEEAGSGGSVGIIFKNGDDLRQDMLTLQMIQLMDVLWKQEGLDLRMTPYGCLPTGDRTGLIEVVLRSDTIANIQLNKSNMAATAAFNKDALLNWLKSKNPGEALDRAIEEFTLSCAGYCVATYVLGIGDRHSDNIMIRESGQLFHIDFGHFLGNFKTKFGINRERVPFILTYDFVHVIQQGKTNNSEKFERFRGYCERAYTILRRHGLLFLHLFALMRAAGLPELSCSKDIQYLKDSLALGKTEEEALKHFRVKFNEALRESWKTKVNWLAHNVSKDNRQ
T3 sequence (P27986 whole entry partner): as the sequence (P27986 whole entry partner) above

CCNC(=O)Nc1ccc(-c2nc3c(c(N4CCOCC4)n2)CCN(C(=O)NCC)C3)cc1 [Example 94, N-ethyl-2-(4-(3-ethylureido)phenyl)-4-morpholino-5,6-dihydropyrido[3,4-d]pyrimidine-7(8H)-carboxamide]
IC50 [1, 2]: > 10 µM | IC50 (PI3Kalpha (PI3Ka)): 1 to 10 µM | IC50 (PI3K delta (PI3 Kd); Table 6): > 10 µM

CCNC(=O)Nc1ccc(-c2nc3c(c(N4CCOC[C@@H]4C)n2)CN(C(=O)OCC)CC3)cc1 [Example 107, (S)-ethyl 2-(4-(3-ethylureido)phenyl)-4-(3-methylmorpholino)-7,8-dihydropyrido[4,3-d]pyrimidine-6(5H)-carboxylate]
IC50 [1, 2]: > 10 µM | Inhibition values (IC50) PI3Ka (PI3Kalpha (PI3Ka)): D (D >10 μM) | IC50 (PI3K delta (PI3 Kd); Table 6): > 10 µM

CCNC(=O)Nc1ccc(-c2nc3c(c(N4CCOC[C@@H]4C)n2)CN(C(=O)OCC)C3)cc1F [Example 103, (S)-ethyl-2-(4-(3-ethylureido)-3-fluorophenyl)-4-(3-methylmorpholino)-5H-pyrrolo[3,4-d]pyrimidine-6(7H)-carboxylate]
IC50 [1, 2]: > 10 µM | Inhibition values (IC50) PI3Ka (PI3Kalpha (PI3Ka)): D (D >10 μM) | IC50 (PI3K delta (PI3 Kd); Table 6): > 10 µM

CCNC(=O)Nc1ccc(-c2nc3c(c(N4CCOC[C@@H]4C)n2)CN(C2CCN(C(=O)OC)CC2)C3)cc1F [Example 122, (S)-methyl 4-(2-(4-(3-ethylureido)-3-fluorophenyl)-4-(3-methylmorpholino)-5H-pyrrolo[3,4-d]pyrimidin-6(7H)-yl)piperidine-1-carboxylate]
IC50 [1, 2]: > 10 µM | Inhibition values (IC50) PI3Ka (PI3Kalpha (PI3Ka)): D (D >10 μM) | IC50 (PI3K delta (PI3 Kd); Table 6): > 10 µM

CC(C)C(=O)N1CCc2c(nc(-c3ccc(NC(=O)NC4CC4)cc3)nc2N2CCOC[C@@H]2C)C1 [Example 61, (S)-1-cyclopropyl-3-(4-(7-isobutyryl-4-(3-methylmorpholino)-5,6,7,8-tetrahydropyrido[3,4-d]pyrimidin-2-yl)phenyl)urea]
IC50 [1, 3]: > 10 µM | IC50 [1, 2]: > 10 µM | Inhibition values (IC50) PI3Ka (PI3Kalpha (PI3Ka)): D (D >10 μM) | IC50 (PI3K delta (PI3 Kd); Table 4): > 10 µM | IC50 (PI3K delta (PI3 Kd); Table 6): > 10 µM

CCOC(=O)N1CCc2c(nc(-c3ccc(NC(=O)NC4CC4)cc3)nc2N2CCOC[C@@H]2C)C1 [Example 78, (S)-ethyl 2-(4-(3-cyclopropylureido)phenyl)-4-(3-methylmorpholino)-5,6-dihydropyrido[3,4-d]pyrimidine-7(8H)-carboxylate]
IC50 [1, 2]: > 10 µM | Inhibition values (IC50) PI3Ka (PI3Kalpha (PI3Ka)): D (D >10 μM) | IC50 (PI3K delta (PI3 Kd); Table 6): > 10 µM

CCNC(=O)Nc1ccc(-c2nc3c(c(N4CCOC[C@@H]4C)n2)CCN(C(=O)Cc2cccnc2)C3)cc1 [Example 91, (S)-1-ethyl-3-(4-(4-(3-methylmorpholino)-7-(2-(pyridin-3-yl)acetyl)-5,6,7,8-tetrahydropyrido[3,4-d]pyrimidin-2-yl)phenyl)urea]
IC50 [1, 2]: > 10 µM | Inhibition values (IC50) PI3Ka (PI3Kalpha (PI3Ka)): D (D >10 μM) | IC50 (PI3K delta (PI3 Kd); Table 6): > 10 µM

CCOC(=O)N1Cc2nc(-c3ccc(NC(=O)NCCO)c(F)c3)nc(N3CCOC[C@@H]3C)c2C1 [Example 104, (S)-ethyl-2-(3-fluoro-4-(3-(2-hydroxyethyl)ureido)phenyl)-4-(3-methylmorpholino)-5H-pyrrolo[3,4-d]pyrimidine-6(7H)-carboxylate]
IC50 [1, 2]: > 10 µM | Inhibition values (IC50) PI3Ka (PI3Kalpha (PI3Ka)): D (D >10 μM) | IC50 (PI3K delta (PI3 Kd); Table 6): > 10 µM

C[C@H]1COCCN1c1nc(-c2ccc(NC(=O)Nc3ccn(C)n3)cc2)nc2c1CN(C)C2 [Example 84, (S)-1-(1-methyl-1H-pyrazol-3-yl)-3-(4-(6-methyl-4-(3-methylmorpholino)-6,7-dihydro-5H-pyrrolo[3,4-d]pyrimidin-2-yl)phenyl)urea]
IC50 [1, 2]: > 10 µM | IC50 (PI3Kalpha (PI3Ka)): 1 to 10 µM | IC50 (PI3K delta (PI3 Kd); Table 6): > 10 µM

CCNC(=O)Nc1ccc(-c2nc3c(c(N4CCOCC4)n2)CCN(C)C3)cc1 [Example 93, 1-ethyl-3-(4-(7-methyl-4-morpholino-5,6,7,8-tetrahydropyrido[3,4-d]pyrimidin-2-yl)phenyl)urea]
IC50 [1, 2]: > 10 µM | Inhibition values (IC50) PI3Ka (PI3Kalpha (PI3Ka)): D (D >10 μM) | IC50 (PI3K delta (PI3 Kd); Table 6): > 10 µM

CCNC(=O)Nc1ccc(-c2nc3c(c(N4CCOCC4)n2)CCN(C(C)=O)C3)cc1 [Example 97, 1-(4-(7-acetyl-4-morpholino-5,6,7,8-tetrahydropyrido[3,4-d]pyrimidin-2-yl)phenyl)-3-ethylurea]
IC50 [1, 2]: 1 to 10 µM | IC50 (PI3Kalpha (PI3Ka)): 1 to 10 µM | IC50 (PI3K delta (PI3 Kd); Table 6): 1 to 10 µM

CCNC(=O)Nc1ccc(-c2nc3c(c(N4CCOC[C@@H]4C)n2)CCN(C(=O)C(C)(C)C)C3)cc1 [Example 58, (S)-1-ethyl-3-(4-(4-(3-methylmorpholino)-7-pivaloyl-5,6,7,8-tetrahydropyrido[3,4-d]pyrimidin-2-yl)phenyl)urea]
IC50 [1, 3]: > 10 µM | IC50 [1, 2]: > 10 µM | Inhibition values (IC50) PI3Ka (PI3Kalpha (PI3Ka)): D (D >10 μM) | IC50 (PI3K delta (PI3 Kd); Table 4): > 10 µM | IC50 (PI3K delta (PI3 Kd); Table 6): > 10 µM

CCNC(=O)Nc1ccc(-c2nc3c(c(N4CCOC[C@@H]4C)n2)CN(CC(C)C)C3)cc1 [Example 66, (S)-1-ethyl-3-(4-(6-isobutyl-4-(3-methylmorpholino)-6,7-dihydro-5H-pyrrolo[3,4-d]pyrimidin-2-yl)phenyl)urea]
IC50 [1, 2]: > 10 µM | Inhibition values (IC50) PI3Ka (PI3Kalpha (PI3Ka)): D (D >10 μM) | IC50 (PI3K delta (PI3 Kd); Table 6): > 10 µM

COC(=O)N1Cc2nc(-c3ccc(NC(=O)NC4CC4)cc3)nc(N3CCOC[C@@H]3C)c2C1 [Example 86, (S)-methyl 2-(4-(3-cyclopropylureido)phenyl)-4-(3-methylmorpholino)-5H-pyrrolo[3,4-d]pyrimidine-6(7H)-carboxylate]
IC50 [1, 2]: > 10 µM | Inhibition values (IC50) PI3Ka (PI3Kalpha (PI3Ka)): D (D >10 μM) | IC50 (PI3K delta (PI3 Kd); Table 6): > 10 µM

CCNC(=O)Nc1ccc(-c2nc3c(c(N4CCOC[C@@H]4C)n2)CCN(C(=O)OC)C3)cc1 [Example 81, (S)-methyl 2-(4-(3-ethylureido)phenyl)-4-(3-methylmorpholino)-5,6-dihydropyrido[3,4-d]pyrimidine-7(8H)-carboxylate]
IC50 [1, 2]: > 10 µM | Inhibition values (IC50) PI3Ka (PI3Kalpha (PI3Ka)): D (D >10 μM) | IC50 (PI3K delta (PI3 Kd); Table 6): > 10 µM

CCNC(=O)Nc1ccc(-c2nc3c(c(N4CCOC[C@@H]4C)n2)CN(CC(F)(F)F)C3)cc1 [Example 68, (S)-1-ethyl-3-(4-(4-(3-methylmorpholino)-6-(2,2,2-trifluoroethyl)-6,7-dihydro-5H-pyrrolo[3,4-d]pyrimidin-2-yl)phenyl)urea]
IC50 [1, 2]: > 10 µM | Inhibition values (IC50) PI3Ka (PI3Kalpha (PI3Ka)): D (D >10 μM) | IC50 (PI3K delta (PI3 Kd); Table 6): > 10 µM

C[C@H]1COCCN1c1nc(-c2ccc(NC(N)=O)cc2)nc2c1CN(C)C2 [Example 71, (S)-1-(4-(6-methyl-4-(3-methylmorpholino)-6,7-dihydro-5H-pyrrolo[3,4-d]pyrimidin-2-yl)phenyl)urea]
IC50 [1, 2]: > 10 µM | IC50 (PI3Kalpha (PI3Ka)): 1 to 10 µM | IC50 (PI3K delta (PI3 Kd); Table 6): 1 to 10 µM

CCNC(=O)Nc1ccc(-c2nc3c(c(N4CCOC[C@@H]4C)n2)CN(C(=O)OCC)C3)cc1 [Example 90, (S)-ethyl 2-(4-(3-ethylureido)phenyl)-4-(3-methylmorpholino)-5H-pyrrolo[3,4-d]pyrimidine-6(7H)-carboxylate]
IC50 [1, 2]: > 10 µM | Inhibition values (IC50) PI3Ka (PI3Kalpha (PI3Ka)): D (D >10 μM) | IC50 (PI3K delta (PI3 Kd); Table 6): > 10 µM

Cc1cc(NC(=O)Nc2ccc(-c3nc4c(c(N5CCOC[C@@H]5C)n3)CN(C)C4)cc2)no1 [Example 72, (S)-1-(4-(6-methyl-4-(3-methylmorpholino)-6,7-dihydro-5H-pyrrolo[3,4-d]pyrimidin-2-yl)phenyl)-3-(5-methylisoxazol-3-yl)urea]
IC50 [1, 2]: > 10 µM | Inhibition values (IC50) PI3Ka (PI3Kalpha (PI3Ka)): D (D >10 μM) | IC50 (PI3K delta (PI3 Kd); Table 6): > 10 µM

CCNC(=O)Nc1ccc(-c2nc3c(c(N4CCOC[C@@H]4C)n2)CN(C(C)C)C3)cc1 [Example 74, (S)-1-ethyl-3-(4-(6-isopropyl-4-(3-methylmorpholino)-6,7-dihydro-5H-pyrrolo[3,4-d]pyrimidin-2-yl)phenyl)urea]
IC50 [1, 2]: > 10 µM | Inhibition values (IC50) PI3Ka (PI3Kalpha (PI3Ka)): D (D >10 μM) | IC50 (PI3K delta (PI3 Kd); Table 6): > 10 µM

C[C@H]1COCCN1c1nc(-c2ccc(NC(=O)NC3CC3)cc2)nc2c1CN(C(=O)C1CCOCC1)C2 [Example 129, (S)-1-cyclopropyl-3-(4-(4-(3-methylmorpholino)-6-(tetrahydro-2H-pyran-4-carbonyl)-6,7-dihydro-5H-pyrrolo[3,4-d]pyrimidin-2-yl)phenyl)urea]
Inhibition values (IC50) PI3Ka (PI3Kalpha (PI3Ka)): D (D >10 μM) | IC50 (PI3K delta (PI3 Kd); Table 6): > 10 µM

CCNC(=O)Nc1ccc(-c2nc3c(c(N4CCOC[C@@H]4C)n2)CN(C(=O)OC(C)(C)C)C3)cc1 [Example 1, (S)-tert-butyl 2-(4-(3-ethylureido)phenyl)-4-(3-methylmorpholino)-5H-pyrrolo[3,4-d]pyrimidine-6(7H)-carboxylate]
IC50 [1, 3]: > 10 µM | IC50 [1, 2]: > 10 µM | IC50 (PI3K delta (PI3 Kd); Table 4): > 10 µM | IC50 (PI3K delta (PI3 Kd); Table 6): > 10 µM

C[C@H]1COCCN1c1nc(-c2ccc(NC(=O)NC3CC3)cc2)nc2c1CN(CC(F)(F)F)C2 [Example 101, (S)-1-cyclopropyl-3-(4-(4-(3-methylmorpholino)-6-(2,2,2-trifluoroethyl)-6,7-dihydro-5H-pyrrolo[3,4-d]pyrimidin-2-yl)phenyl)urea]
IC50 [1, 2]: > 10 µM | IC50 (PI3K delta (PI3 Kd); Table 6): > 10 µM

CCNC(=O)Nc1ccc(-c2nc3c(c(N4CCOC[C@@H]4C)n2)CCN(C(C)=O)C3)cc1 [Example 59, (S)-1-(4-(7-acetyl-4-(3-methylmorpholino)-5,6,7,8-tetrahydropyrido[3,4-d]pyrimidin-2-yl)phenyl)-3-ethylurea]
IC50 [1, 3]: > 10 µM | IC50 [1, 2]: > 10 µM | IC50 (PI3K delta (PI3 Kd); Table 4): > 10 µM | IC50 (PI3K delta (PI3 Kd); Table 6): > 10 µM
